According to patent US7098241B2, “Thiophene hydroxamic acid derivatives” (Hoffmann-La Roche Inc., priority 2002, dated 2006):
pIC50: −log10 of the molar value.

Legend:
[1] = test system: HCT116 tumor cells (human colon adenocarcinoma) xenograft; assay: Antitumor activity in a HCT116 xenograft model; format: in vivo, NMRI nude male mice; details: 21 dosing days over 29 days
Method: Determination of Antitumor Activity in a HCT116 Xenograft Model
The HCT116 cell line (NCI line) is derived from a human colon adenocarcinoma and kept in an in house working cell bank. Cells were cultured in RPMI1640/2 mM L-glutamin medium supplemented with 10% heat inactivated FCS. For inoculation HCT116 tumor cells are removed (trypsin-EDTA, 50 U/mg) from culture flasks and transferred into culture medium (RPMI 1640, 10% heat inactivated FCS), washed and resuspended in sterile PBS to achieve a final cell concentration of 5×10^6/100 μl. Cell suspension was carefully mixed by regular shaking to avoid cell aggregation and filled into a 1.0 ml graded syringe. Tumor cell inoculation was performed under light anesthesia (Ethrane.) in the upper ventral quarter of right flank, i.e. between axilla of forelegs and midline region of NMRI nude male mice. In this site 5×10^6 HCT116 tumor cells were s.c. discharged in a volume of 100 μl PBS. All procedures were carried out under SPF conditions wearing appropriate clothings. After s.c. inoculation of tumor cells, measurable tumors developed in all animals. Mice were staged and randomized on day 10 according to the primary tumor dimensions. 21 days daily oral dosing was carried out using the compound of example 1 and compound 3 of WO 93/07148, WO 95/31977, U.S. Pat. No. 5,369,108 ('108 patent) as test article. 75 male NMRI nude mice were divided into 5 study groups. Each group consisted of 15 male animals. The individual groups were given the test article, formulated as microsuspensions in 7.5% modified gelatin with 0.22% NaCl solution, once daily by oral route over 29 days according to the following treatment scheme: 3 days treatment, 2 days drug holiday, 5 days treatment, 2 days drug holiday, 5 days treatment, 2 days drug holiday, 5 days treatment, 2 days drug holiday, 3 days treatment. The application volume was 10 ml/kg. The oral doses chosen were 50, 100, and 200 mg/kg of the compound of example 1 and 200 mg/kg of compound 3 of the '108 patent.

[2] = test system: HT-29 cells (human colon carcinoma cell line); assay: MTT anti-proliferation assay on HT-29 cells; format: cell-based; details: Homo sapiens, 120 h, 384 well plates, 5 days, read-out: IC50 HT29 384
Text: MTT (3-(4,5-dimethylthiazol-2-yl)-2,5-diphenyl tetrazolium bromide) is widely used for the quantitative determination of cytotoxic effects or in vitro chemosensitivity of tumor cells. The assay is based on the cleavage of the yellow tetrazolium salt (MTT) to purple formazan crystals by metabolic active cells. For details, see Rubinstein, L. V., et al., J. Natl. Cancer Inst. 82 (1990) 1113.
We proceeded as follows: HT-29 cells (human colon carcinoma cell line) were cultivated in RPMI 1640, 2.5% FCS, 2 mM glutamine, 100 u/ml penicillin, 100 ug/ml streptomycin. For the assay the cells were seeded in 384 well plates, 900 cells per well, in the same medium. At the next day, the compounds (dissolved 10 mM in DMSO) were added in various concentrations ranging from 30 uM to 1.5 nM. After 5 days, the MTT assay was done mainly according to the instructions of the manufacturer (Cell proliferation kit I, MTT, from Roche Molecular Biochemicals). In brief: MTT labeling reagent was added to a final concentration of 0.5 mg/ml, added and incubated for 4 hrs at 37° C., 5% CO2. During this incubation time purple formazan crystals are formed. After addition of the solubilization solution (20% SDS in 0.02 M HCl) the plates were incubated overnight at 37° C., 5% CO2. After careful mixing, the plates were measured in Victor 2 (scanning multiwell spectrophotometer, Wallac) at 550 nm.
A decrease in number of living cells results in a decrease in the total metabolic activity in the sample. The decrease directly correlates to the amount of purple color resulting from the solubilization of the purple formazan crystals. Determination of IC50 was done using XL-fit.

recombinant HDAC-1 = target: T1, recombinant HDAC-1 (Homo sapiens, UniProt Q13547); assay: HDAC biochemical quench assay; details: recombinant HDAC-1 purified from HEK 293 cells, 1 uM peptide substrate, 90 min at room temperature
T1 construct: made in house; host or cells: HEK 293 cells
T1 sequence (Q13547 whole entry, species assumed): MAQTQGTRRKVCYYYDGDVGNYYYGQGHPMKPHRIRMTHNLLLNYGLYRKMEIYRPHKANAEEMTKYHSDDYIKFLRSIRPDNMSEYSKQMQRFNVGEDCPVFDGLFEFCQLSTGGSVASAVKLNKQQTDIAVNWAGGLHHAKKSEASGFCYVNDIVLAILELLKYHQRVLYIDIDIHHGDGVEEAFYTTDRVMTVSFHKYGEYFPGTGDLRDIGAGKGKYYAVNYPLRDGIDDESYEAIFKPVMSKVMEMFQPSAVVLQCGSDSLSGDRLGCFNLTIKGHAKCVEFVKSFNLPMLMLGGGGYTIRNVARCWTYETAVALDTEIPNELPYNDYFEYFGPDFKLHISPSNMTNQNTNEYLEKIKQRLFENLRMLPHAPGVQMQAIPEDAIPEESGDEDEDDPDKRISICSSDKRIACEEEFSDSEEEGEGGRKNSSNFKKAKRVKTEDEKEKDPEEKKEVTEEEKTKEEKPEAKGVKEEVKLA
Text: The function of histone deacetylase (HDAC) is the deacetylation of lysines in e.g. histone H4. A peptide of 17 amino acids derived from histone H4 was labeled with TAMRA at the C-terminus and QSY-7 at the N-terminus and was used as a substrate (TAMRA-first17 aa of histone H4-QSY7). Following deacetylation by HDAC, the enzyme Lys C is able to cleave the peptide after lysine. […] Inhibition of HDAC by compounds results in low signals because Lys C could not cleave the substrate and the quench effect persists.
For dose response curves, 10 concentrations were diluted 1:3 starting at 30 uM. 10 ul compound dilution were put into each well of a 384 well plate. 10 ul HDAC were added (recombinant HDAC-1 purified from HEK 293 cells; enzyme activity has to be assessed for each preparation). 10 ul peptide substrate was added (1 uM final concentration, derived from 1 mM stock solution diluted 1:1000 in test buffer). After 90 min incubation at room temperature, the reaction was stopped by addition of 20 ul test buffer including 3 ug/ml Lys C and 0.075% SDS. After overnight incubation the fluorescence signal of TAMRA was measured (Victor 2 from Wallac, absorption 544 nm, emission 590 nm). The O.D. of DMSO-treated control wells is 100%, the % inhibition of compound treated wells is calculated in relation to 100%. Based on 10 concentrations a IC50 curve is generated by using XL.fit3.
Test buffer used: a mixture of 10 mM Hepes pH8, 10 mM NaCl, 10% Glycerol, 0.005% Triton X100, 0.1 mM EDTA, 0.1 mM TCEP. As plates were used 384 well plates (black, Greiner, 781077).

pIC50 [2]: 6.77
pIC50 (recombinant HDAC-1): 8.47
SMILES: C[C@@H](NC(=O)c1ccc(C(=O)NO)s1)c1ccccc1 [Example 1, (R)-thiophene-2,5-dicarboxylic acid 2-hydroxyamide 5-[(1-phenyl-ethyl)-amide]]
tumor weight inhibition ([1]; 50 mg/kg oral once daily): 40%
tumor weight inhibition ([1]; 100 mg/kg oral once daily): 49%
tumor weight inhibition ([1]; 200 mg/kg oral once daily): 87%
